ChEMBL document CHEMBL1124282, “Synthesis of fluorescent muramyl dipeptide congeners. 2” (1988)

Experiments:
Cavia porcellus [1] = species: Cavia porcellus; test: Antibody response to the compound was determined in guinea pigs; format: functional
Cavia porcellus [2] = species: Cavia porcellus; test: Adjuvant activity was determined by the ability of compound to stimulate delayed hypersensitivity by intradermal injection of 10 ug of ovalbumin after 48 hr in guinea pigs; format: functional

Row | SMILES | Antibody response (Cavia porcellus [1]) | DTH (Cavia porcellus [2])
1 | COc1ccc2c(c1)Oc1cc(O)ccc1/C2=C1C=C/C(=N/c2nc(O)nc(NCCCC[C@H](NC(=O)[C@@H](C)OC3C(O)C(CO)OC(O)C3NC(C)=O)C(=O)N[C@H](CCC(=O)O)C(N)=O)n2)C=C\1C(=O)O (stereo partly drawn) | 17.6 | 2.9
2 | COc1ccc2c(c1)Oc1cc(O)ccc1/C2=C1C=C/C(=N/c2nc(O)nc(NCCCC[C@H](NC(=O)CC[C@@H](NC(=O)[C@H](C)NC(=O)[C@@H](C)OC3C(O)C(CO)OC(O)C3NC(C)=O)C(N)=O)C(=O)O)n2)C=C\1C(=O)O (stereo partly drawn) | 192 | 20.2
3 | COc1ccc2c(c1)Oc1cc(O)ccc1/C2=C1C=C/C(=N/c2nc(O)nc(OCC3OC(O)C(NC(C)=O)C(O[C@H](C)C(=O)N[C@@H](C)C(=O)N[C@H](CCC(=O)O)C(N)=O)C3O)n2)C=C\1C(=O)O (stereo partly drawn) | 123.34 | 11.5
4 | CC(=O)N[C@H]1C(O)O[C@H](CO)[C@@H](O)[C@@H]1O[C@H](C)C(=O)N[C@@H](C)C(=O)N[C@H](CCC(=O)O)C(N)=O (stereo partly drawn) [MURAMYL DIPEPTIDE] | 82.49 | 10.6
